Assays:
Format in all cases: cell-based
[1] = tested on: RPMI-8226; assay: In vitro cytotoxicity, NCI screen: RPMI-8226 (Leukemia); settings: Homo sapiens; RPMI-8226, Leukemia panel, NCI protocol; read-out: GI50 values (μM conc.)
Description: (§1) The in vitro anticancer activity studies for these amidobenzothiazoles were carried out at the National Cancer Institute, Maryland, USA.
(§2) The amidobenzothiazoles have been tested against sixty human tumor cell lines derived from nine cancer types (leukemia cancer cell line, non-small cell lung cancer cell line, colon cancer cell line, CNS cancer cell line, melanoma cancer cell line, ovarian cancer cell line, renal cancer cell line, prostate cancer cell line and breast cancer cell lines). For these compounds results are expressed in GI50 values of that particular cancer cell at micro molar (μM) concentration as per NCI protocol.

[2] = tested on: SR; assay: In vitro cytotoxicity, NCI screen: SR (Leukemia); settings: Homo sapiens, Leukemia panel, NCI protocol, read-out: GI50 values (μM conc.)
Description: as §1, §2

[3] = tested on: A549/ATCC; assay: In vitro cytotoxicity, NCI screen: A549/ATCC (Non-small cell lung); settings: Homo sapiens, Non-small cell lung panel, NCI protocol, read-out: GI50 values (μM conc.)
Description: as §1, §2

[4] = tested on: NCI-H226; assay: In vitro cytotoxicity, NCI screen: NCI-H226 (Non-small cell lung); settings: Homo sapiens; NCI-H226, Non-small cell lung panel, NCI protocol; read-out: GI50 values (μM conc.)
Description: as §1, §2

[5] = tested on: NCI-H23; assay: In vitro cytotoxicity, NCI screen: NCI-H23 (Non-small cell lung); settings: Homo sapiens; NCI-H23, Non-small cell lung panel, NCI protocol; read-out: GI50 values (μM conc.)
Description: as §1, §2

[6] = tested on: NCI-H322M; assay: In vitro cytotoxicity, NCI screen: NCI-H322M (Non-small cell lung); settings: Homo sapiens, Non-small cell lung panel, NCI protocol, read-out: GI50 values (μM conc.)
Description: as §1, §2

[7] = tested on: NCI-H460; assay: In vitro cytotoxicity, NCI screen: NCI-H460 (Non-small cell lung); settings: Homo sapiens; NCI-H460, Non-small cell lung panel, NCI protocol; read-out: GI50 values (μM conc.)
Description: as §1, §2

[8] = tested on: NCI-H522; assay: In vitro cytotoxicity, NCI screen: NCI-H522 (Non-small cell lung); settings: Homo sapiens; NCI-H522, Non-small cell lung panel, NCI protocol; read-out: GI50 values (μM conc.)
Description: as §1, §2

[9] = tested on: COLO-205; assay: In vitro cytotoxicity, NCI screen: COLO-205 (Colon); settings: Homo sapiens; COLO-205, Colon panel, NCI protocol; read-out: GI50 values (μM conc.)
Description: as §1, §2

[10] = tested on: HCC-2998; assay: In vitro cytotoxicity, NCI screen: HCC-2998 (Colon); settings: Homo sapiens; HCC-2998, Colon panel, NCI protocol; read-out: GI50 values (μM conc.)
Description: as §1, §2

[11] = tested on: HT29; assay: In vitro cytotoxicity, NCI screen: HT29 (Colon); settings: Homo sapiens, HT-29; HT29, Colon panel, NCI protocol; read-out: GI50 values (μM conc.)
Description: as §1, §2

[12] = tested on: SF-268; assay: In vitro cytotoxicity, NCI screen: SF-268 (CNS); settings: Homo sapiens, read-out: GI50 values (μM conc.)
Description: as §1, §2

[13] = tested on: SF-295; assay: In vitro cytotoxicity, NCI screen: SF-295 (CNS); settings: Homo sapiens; SF-295, CNS panel, NCI protocol; read-out: GI50 values (μM conc.)
Description: as §1, §2

[14] = tested on: SF-539; assay: In vitro cytotoxicity, NCI screen: SF-539 (CNS); settings: Homo sapiens, read-out: GI50 values (μM conc.)
Description: as §1, §2

[15] = tested on: U251; assay: In vitro cytotoxicity, NCI screen: U251 (CNS); settings: Homo sapiens, U-251; U251, CNS panel, NCI protocol; read-out: GI50 values (μM conc.)
Description: as §1, §2

[16] = tested on: MALME-3M; assay: In vitro cytotoxicity, NCI screen: MALME-3M (Melanoma); settings: Homo sapiens, Melanoma panel, NCI protocol, read-out: GI50 values (μM conc.)
Description: as §1, §2

[17] = tested on: M14; assay: In vitro cytotoxicity, NCI screen: M14 (Melanoma); settings: Homo sapiens; M14, Melanoma panel, NCI protocol; read-out: GI50 values (μM conc.)
Description: as §1, §2

[18] = tested on: SK-MEL-2; assay: In vitro cytotoxicity, NCI screen: SK-MEL-2 (Melanoma); settings: Homo sapiens; SK-MEL-2, Melanoma panel, NCI protocol; read-out: GI50 values (μM conc.)
Description: as §1, §2

[19] = tested on: IGROV1; assay: In vitro cytotoxicity, NCI screen: IGROV1 (Ovarian); settings: Homo sapiens, IGROV-1; IGROV1, Ovarian panel, NCI protocol; read-out: GI50 values (μM conc.)
Description: as §1, §2

[20] = tested on: OVCAR-4; assay: In vitro cytotoxicity, NCI screen: OVCAR-4 (Ovarian); settings: Homo sapiens; OVCAR-4, Ovarian panel, NCI protocol; read-out: GI50 values (μM conc.)
Description: as §1, §2

[21] = tested on: OVCAR-5; assay: In vitro cytotoxicity, NCI screen: OVCAR-5 (Ovarian); settings: Homo sapiens; OVCAR-5, Ovarian panel, NCI protocol; read-out: GI50 values (μM conc.)
Description: as §1, §2

[22] = tested on: OVCAR-8; assay: In vitro cytotoxicity, NCI screen: OVCAR-8 (Ovarian); settings: Homo sapiens; OVCAR-8, Ovarian panel, NCI protocol; read-out: GI50 values (μM conc.)
Description: as §1, §2

[23] = tested on: SK-OV-3; assay: In vitro cytotoxicity, NCI screen: SK-OV-3 (Ovarian); settings: Homo sapiens; SK-OV-3, Ovarian panel, NCI protocol; read-out: GI50 values (μM conc.)
Description: as §1, §2

[24] = tested on: 786-0; assay: In vitro cytotoxicity, NCI screen: 786-0 (Renal); settings: Homo sapiens; 786-0, Renal panel, NCI protocol; read-out: GI50 values (μM conc.)
Description: as §1, §2

[25] = tested on: CAKI-1; assay: In vitro cytotoxicity, NCI screen: CAKI-1 (Renal); settings: Homo sapiens; CAKI-1, Renal panel, NCI protocol; read-out: GI50 values (μM conc.)
Description: as §1, §2

[26] = tested on: RXF 393; assay: In vitro cytotoxicity, NCI screen: RXF 393 (Renal); settings: Homo sapiens; RXF 393, Renal panel, NCI protocol; read-out: GI50 values (μM conc.)
Description: as §1, §2

[27] = tested on: TK-10; assay: In vitro cytotoxicity, NCI screen: TK-10 (Renal); settings: Homo sapiens; TK-10, Renal panel, NCI protocol; read-out: GI50 values (μM conc.)
Description: as §1, §2

[28] = tested on: DU-145; assay: In vitro cytotoxicity, NCI screen: DU-145 (Prostate); settings: Homo sapiens, read-out: GI50 values (μM conc.)
Description: as §1, §2

[29] = tested on: MDA-MB-231/ATCC; assay: In vitro cytotoxicity, NCI screen: MDA-MB-231/ATCC (Breast); settings: Homo sapiens, Breast panel, NCI protocol, read-out: GI50 values (μM conc.)
Description: as §1, §2

[30] = tested on: HS 578T; assay: In vitro cytotoxicity, NCI screen: HS 578T (Breast); settings: Homo sapiens, read-out: GI50 values (μM conc.)
Description: as §1, §2

[31] = tested on: MDA-MB-468; assay: In vitro cytotoxicity, NCI screen: MDA-MB-468 (Breast); settings: Homo sapiens, read-out: GI50 values (μM conc.)
Description: as §1, §2

[32] = tested on: CNS cancer cell lines; assay: In vitro activity against CNS cancer cell lines (panel range); settings: Homo sapiens, read-out: GI50 values, range over the listed compounds and the panel
Description: as §1, §2

Structure (SMILES) | GI50 [1] | GI50 [2] | GI50 [3] | GI50 [4] | GI50 [5] | GI50 [6] | GI50 [7] | GI50 [8] | GI50 [9] | GI50 [10] | GI50 [11] | GI50 [12] | GI50 [13] | GI50 [14] | GI50 [15] | GI50 [16] | GI50 [17] | GI50 [18] | GI50 [19] | GI50 [20] | other results
COc1ccc(/C=C\c2cc(OC)c(OC)c(OC)c2)cc1OCC(=O)Nc1nc2ccc(F)cc2s1 [Compound 8e, N1-(6-fluoro-1,3-benzothiazol-2-yl)-2-{2-methoxy-5-[(Z)-2-(3,4,5-trimethoxyphenyl)-1-ethenyl]phenoxy}acetamide] | 6.36 µM | 2.19 µM | 5.99 µM | 5.6 µM | 4.26 µM | > 100 µM | 4.36 µM | 2.92 µM | 7.78 µM | > 100 µM | 9.63 µM | 7.23 µM | 4.29 µM | 4.51 µM | 4.33 µM | 5.22 µM | 6.82 µM | 8.46 µM | 4.17 µM | 7.3 µM | GI50 [21]: > 100 µM; GI50 [22]: 7.15 µM; GI50 [23]: 8 µM; GI50 [24]: 7.12 µM; GI50 [25]: 2.78 µM; GI50 [26]: 6.29 µM; GI50 [27]: 9.89 µM; GI50 [28]: 8.97 µM; GI50 [29]: 9.34 µM; GI50 [30]: > 100 µM; GI50 [31]: 3.68 µM; GI50 [32]: 0.045 to 18.8 µM
COc1ccc(/C=C\c2cc(OC)c(OC)c(OC)c2)cc1OCC(=O)Nc1nc2ccc(C(F)(F)F)cc2s1 [Compound 8i, N1-(6-(trifluoromethyl)-1,3-benzothiazol-2-yl)-2-{2-methoxy-5-[(Z)-2-(3,4,5-trimethoxyphenyl)-1-ethenyl]phenoxy}acetamide] | 5.48 µM | 3.35 µM | 4.46 µM | 3.17 µM | 3.9 µM | 5.38 µM | 3.55 µM | 2.89 µM | 17.1 µM | 4.23 µM | 14.9 µM | 3.85 µM | 3.36 µM | 2.66 µM | 3.67 µM | > 100 µM | 3.58 µM | 3.98 µM | 4.48 µM | 4.66 µM | GI50 [21]: 5.98 µM; GI50 [22]: 3.86 µM; GI50 [23]: 3.29 µM; GI50 [24]: 6.96 µM; GI50 [25]: 3.1 µM; GI50 [26]: 2.27 µM; GI50 [27]: 7.03 µM; GI50 [28]: 2.51 µM; GI50 [29]: 3.38 µM; GI50 [30]: 4.18 µM; GI50 [31]: 2.16 µM; GI50 [32]: 0.045 to 18.8 µM

From US9102638B2, “Amidobenzothiazoles and process for the preparation thereof” (COUNCIL OF SCIENTIFIC & INDUSTRIAL RESEARCH, priority 2011, dated 2015)
